Test results from patent US6410600B1, “Azine used as fungicides” (Bayer Aktiengesellschaft, priority 1998, dated 2002).

Tests used:
[1] = logP determination by HPLC (EEC direction 79/831 Annex V. A8); type: physicochemical; conditions: eluent not stated
[2] = test system: Plasmopara viticola; test: Plasmopara Test (grapevine)/Protective; type: in vivo; conditions: protective, application rate 100 g/ha, evaluation 6 days after inoculation
Experimental: Plasmopara Test (grapevine)/Protective
(§1) To produce a suitable preparation of active compound, 1 part by weight of active compound is mixed with the stated amounts of solvent and emulsifier, and the concentrate is diluted with water to the desired concentration.
To test for protective activity, young plants are sprayed with the preparation of active compound at the stated application rate. After the spray coating has dried on, the plants are inoculated with an aqueous spore suspension of Plasmopara viticola and then remain in an incubation cabin at approximately 20° C. and 100% relative atmospheric humidity for 1 day. The plants are then placed in a greenhouse at approximately 21° C. and approximately 90% relative atmospheric humidity. The plants are then moistened and placed in an incubation cabin for 1 day.
Evaluation is carried out 6 days after the inoculation. 0% means an efficacy which corresponds to that of the control, whereas an efficacy of 100% means that no infection is observed.

[3] = test system: Sphaerotheca fuliginea; test: Sphaerotheca Test (cucumber)/Protective; type: in vivo; conditions: protective, application rate 100 g/ha, evaluation 10 days after inoculation
Experimental: Sphaerotheca Test (cucumber)/Protective
as §1
To test for protective activity, young plants are sprayed with the preparation of active compound at the stated application rate. After the spray coating has dried on, the plants are inoculated with an aqueous spore suspension of Sphaerotheca fuliginea. The plants are then placed in a greenhouse at approximately 23° C. and a relative atmospheric humidity of approximately 70%.
Evaluation is carried out 10 days after the inoculation. 0% means an efficacy which corresponds to that of the control, whereas an efficacy of 100% means that no infection is observed.

[4] = test system: Venturia inaequalis; test: Venturia Test (apple)/Protective; type: in vivo; conditions: protective, application rate 10 g/ha, evaluation 12 days after inoculation
Experimental: Venturia Test (apple)/Protective
as §1
To test for protective activity, young plants are sprayed with the preparation of active compound at the stated application rate. After the spray coating has dried on, the plants are inoculated with an aqueous conidia suspension of the causative organism of apple scab Venturia inaequalis and then remain in an incubation cabin at approximately 20° C. and 100% relative atmospheric humidity for 1 day.
The plants are then placed in a greenhouse at approximately 21° C. and a relative atmospheric humidity of approximately 90%.
Evaluation is carried out 12 days after the inoculation. 0% means an efficacy which corresponds to that of the control, whereas an efficacy of 100% means that no infection is observed.

chromatographic logP [1]	Structure (SMILES)	efficacy [2]	efficacy [3]	efficacy [4]
0.97	CO/N=C(\C)C(C)=NN [3-hydrazono-butan-2-one O-methyl oxime]	–	–	–
4.4	COC(=O)/C=C(/OC)c1ccccc1C=NN=C(C)c1cccc(C(F)(F)F)c1 [Example 1, methyl 3-methoxy-3-(2-{[1-(3-trifluoromethylphenyl)-ethylidene]-hydrazonomethyl}-phenyl)-acrylate]	more than 80%	more than 80%	more than 90%
